In patent publication US20120270819A1, “USE OF COMPOUNDS WITH SGLT-1/SGLT-2 INHIBITOR ACTIVITY FOR PRODUCING MEDICAMENTS FOR TREATMENT OF BONE DISEASE” (SANOFI, priority 2009, published 2012):

Legend:
[1] = tested on: female Sprague-Dawley mature and young adult rats; test: Ex vivo dual energy X-ray absorptiometry (DXA) of right femur, 28-day oral rat study; type: in vivo
Method: (§1) The following were evaluated: clinical signs (at least weekly), body weight (weekly), food consumption (weekly), hormones (Days 13 and 27), serum and urinary biochemical markers of bone turnover (Days 13 and 27), serum chemistry (at necropsy), bone densitometry by dual energy X-ray absorptiometry (DXA) and peripheral quantitative computed tomography (pQCT) (Week 2 and 4, as well as ex vivo), macroscopic observations at necropsy, organ weights, histopathology, biomechanical strength testing and femoral length measurements.
3.1 Ex Vivo Dual Energy X-Ray Absorptiometry (DXA)
DXA was used to measure bone mineral density (BMD), bone mineral content (BMC) and area. Single DXA scans were obtained for the excised right femur from all animals euthanized at the end of the treatment period (except three animals due to damaged femoral condyles) as well as two found dead animals. These exclusions had no adverse impact on the overall outcome of the study as sufficient specimens were measured in each groups. Scans were performed with a Hologic Discovery A bone densitometer as per PCS-MTL Standard Operating Procedures.

[2] = tested on: female Sprague-Dawley mature and young adult rats; test: Animal study of bone quality, daily oral gavage for a minimum of 28 days (overall findings, histopathology); type: in vivo, rat
Method: as §1

[3] = Mature Adults, 10 mg/kg/day (Table 5a)
[4] = Mature Adults, 10 mg/kg/day, mean
[5] = Mature Adults, 10 mg/kg/day, mean (Table 5a)
[6] = Mature Adults, 50 mg/kg/day (Table 5a)
[7] = Mature Adults, 50 mg/kg/day, mean
[8] = Mature Adults, 50 mg/kg/day, mean (Table 5a)
[9] = Young Adults, 10 mg/kg/day (Table 6a)
[10] = Young Adults, 10 mg/kg/day, mean
[11] = Young Adults, 10 mg/kg/day, mean (Table 6a)
[12] = Young Adults, 50 mg/kg/day (Table 6a)
[13] = Young Adults, 50 mg/kg/day, mean
[14] = Young Adults, 50 mg/kg/day, mean (Table 6a)

## COc1ccc(Cc2c(OC3OC(CO)C(F)C(O)C3O)n[nH]c2C(F)(F)F)cc1 (centres unmarked) [Example 5 of formula II]
[1]; Mature Adults, 10 mg/kg/day
  DXA femur Distal Area, percent difference from Vehicle Control: 1.7%
  DXA femur Distal BMC, percent difference from Vehicle Control: 6.2%
  DXA femur Distal BMD, percent difference from Vehicle Control: 4.4%
  DXA femur Global Area, percent difference from Vehicle Control: 1.9%
  DXA femur Global BMC, percent difference from Vehicle Control: 6.0%
  DXA femur Global BMD, percent difference from Vehicle Control: 4.0%
  DXA femur Mid Area, percent difference from Vehicle Control: 3.9%
  DXA femur Mid BMC, percent difference from Vehicle Control: 6.4%
  DXA femur Mid BMD, percent difference from Vehicle Control: 2.4%
  DXA femur Proximal Area, percent difference from Vehicle Control: 2.4%
  DXA femur Proximal BMC, percent difference from Vehicle Control: 6.1%
  DXA femur Proximal BMD, percent difference from Vehicle Control: 3.7%
[1]; [3]
  DXA femur Mid Area, percent difference from Vehicle Control: 3.86%
  DXA femur Mid BMC, percent difference from Vehicle Control: 6.45%
  DXA femur Mid BMD, percent difference from Vehicle Control: 2.35%
[1]; [4]
  DXA femur Distal Area: 0.41 cm^2
  DXA femur Distal BMC: 0.14 g
  DXA femur Distal BMD: 0.34 g/cm^2
  DXA femur Global Area: 1.91 cm^2
  DXA femur Global BMC: 0.52 g
  DXA femur Global BMD: 0.27 g/cm^2
  DXA femur Mid Area: 0.45 cm^2
  DXA femur Mid BMC: 0.11 g
  DXA femur Mid BMD: 0.24 g/cm^2
  DXA femur Proximal Area: 0.63 cm^2
  DXA femur Proximal BMC: 0.18 g
  DXA femur Proximal BMD: 0.28 g/cm^2
[1]; [5]
  DXA femur Mid Area: 0.45 cm^2
  DXA femur Mid BMC: 0.11 g
  DXA femur Mid BMD: 0.24 g/cm^2
[1]; Mature Adults, 50 mg/kg/day
  DXA femur Distal Area, percent difference from Vehicle Control: −0.1%
  DXA femur Distal BMC, percent difference from Vehicle Control: 8.3%
  DXA femur Distal BMD, percent difference from Vehicle Control: 8.4%
  DXA femur Global Area, percent difference from Vehicle Control: −1.2%
  DXA femur Global BMC, percent difference from Vehicle Control: 3.7%
  DXA femur Global BMD, percent difference from Vehicle Control: 5.0%
  DXA femur Mid Area, percent difference from Vehicle Control: −1.0%
  DXA femur Mid BMC, percent difference from Vehicle Control: 1.2%
  DXA femur Mid BMD, percent difference from Vehicle Control: 2.3%
  DXA femur Proximal Area, percent difference from Vehicle Control: 0.1%
  DXA femur Proximal BMC, percent difference from Vehicle Control: 3.0%
  DXA femur Proximal BMD, percent difference from Vehicle Control: 2.9%
[1]; [6]
  DXA femur Mid Area, percent difference from Vehicle Control: −0.97%
  DXA femur Mid BMC, percent difference from Vehicle Control: 1.25%
  DXA femur Mid BMD, percent difference from Vehicle Control: 2.26%
[1]; [7]
  DXA femur Distal Area: 0.41 cm^2
  DXA femur Distal BMC: 0.14 g
  DXA femur Distal BMD: 0.35 g/cm^2
  DXA femur Global Area: 1.85 cm^2
  DXA femur Global BMC: 0.51 g
  DXA femur Global BMD: 0.27 g/cm^2
  DXA femur Mid Area: 0.43 cm^2
  DXA femur Mid BMC: 0.11 g
  DXA femur Mid BMD: 0.24 g/cm^2
  DXA femur Proximal Area: 0.61 cm^2
  DXA femur Proximal BMC: 0.17 g
  DXA femur Proximal BMD: 0.28 g/cm^2
[1]; [8]
  DXA femur Mid Area: 0.43 cm^2
  DXA femur Mid BMC: 0.11 g
  DXA femur Mid BMD: 0.24 g/cm^2
[1]; Young Adults, 10 mg/kg/day
  DXA femur Distal Area, percent difference from Vehicle Control: 1.7%
  DXA femur Distal BMC, percent difference from Vehicle Control: 6.4%
  DXA femur Distal BMD, percent difference from Vehicle Control: 4.7%
  DXA femur Global Area, percent difference from Vehicle Control: −2.5%
  DXA femur Global BMC, percent difference from Vehicle Control: 0.5%
  DXA femur Global BMD, percent difference from Vehicle Control: 3.2%
  DXA femur Mid Area, percent difference from Vehicle Control: −0.9%
  DXA femur Mid BMC, percent difference from Vehicle Control: −2.6%
  DXA femur Mid BMD, percent difference from Vehicle Control: −1.9%
  DXA femur Proximal Area, percent difference from Vehicle Control: −2.6%
  DXA femur Proximal BMC, percent difference from Vehicle Control: −0.8%
  DXA femur Proximal BMD, percent difference from Vehicle Control: 1.8%
[1]; [9]
  DXA femur Mid Area, percent difference from Vehicle Control: −0.89%
  DXA femur Mid BMC, percent difference from Vehicle Control: −2.61%
  DXA femur Mid BMD, percent difference from Vehicle Control: −1.87%
[1]; [10]
  DXA femur Distal Area: 0.37 cm^2
  DXA femur Distal BMC: 0.10 g
  DXA femur Distal BMD: 0.26 g/cm^2
  DXA femur Global Area: 1.45 cm^2
  DXA femur Global BMC: 0.30 g
  DXA femur Global BMD: 0.21 g/cm^2
  DXA femur Mid Area: 0.39 cm^2
  DXA femur Mid BMC: 0.07 g
  DXA femur Mid BMD: 0.17 g/cm^2
  DXA femur Proximal Area: 0.50 cm^2
  DXA femur Proximal BMC: 0.11 g
  DXA femur Proximal BMD: 0.22 g/cm^2
[1]; [11]
  DXA femur Mid Area: 0.39 cm^2
  DXA femur Mid BMC: 0.07 g
  DXA femur Mid BMD: 0.17 g/cm^2
[1]; Young Adults, 50 mg/kg/day
  DXA femur Distal Area, percent difference from Vehicle Control: 0.5%
  DXA femur Distal BMC, percent difference from Vehicle Control: 8.4%
  DXA femur Distal BMD, percent difference from Vehicle Control: 7.9%
  DXA femur Global Area, percent difference from Vehicle Control: −4.7%
  DXA femur Global BMC, percent difference from Vehicle Control: 0.0%
  DXA femur Global BMD, percent difference from Vehicle Control: 4.9%
  DXA femur Mid Area, percent difference from Vehicle Control: −0.8%
  DXA femur Mid BMC, percent difference from Vehicle Control: −3.2%
  DXA femur Mid BMD, percent difference from Vehicle Control: −2.6%
  DXA femur Proximal Area, percent difference from Vehicle Control: −4.9%
  DXA femur Proximal BMC, percent difference from Vehicle Control: −4.0%
  DXA femur Proximal BMD, percent difference from Vehicle Control: 1.0%
[1]; [12]
  DXA femur Mid Area, percent difference from Vehicle Control: −0.77%
  DXA femur Mid BMC, percent difference from Vehicle Control: −3.16%
  DXA femur Mid BMD, percent difference from Vehicle Control: −2.62%
[1]; [13]
  DXA femur Distal Area: 0.37 cm^2
  DXA femur Distal BMC: 0.10 g
  DXA femur Distal BMD: 0.27 g/cm^2
  DXA femur Global Area: 1.42 cm^2
  DXA femur Global BMC: 0.30 g
  DXA femur Global BMD: 0.21 g/cm^2
  DXA femur Mid Area: 0.39 cm^2
  DXA femur Mid BMC: 0.07 g
  DXA femur Mid BMD: 0.17 g/cm^2
  DXA femur Proximal Area: 0.49 cm^2
  DXA femur Proximal BMC: 0.11 g
  DXA femur Proximal BMD: 0.21 g/cm^2
[1]; [14]
  DXA femur Mid Area: 0.39 cm^2
  DXA femur Mid BMC: 0.07 g
  DXA femur Mid BMD: 0.17 g/cm^2
[2]; both dose levels (10, 50 mg/kg/day), both rat populations
  effects on bone mass and bone strength associated parameters: positive effects
[2]; young only
  trabecular bone noted histopathologically: increase in trabecular bone
